Data reported in patent US11484607B2, “PSMA-targeted NIR dyes and their uses” (On Target Laboratories, LLC, priority 2015, dated 2022).

What was measured:
[1] = tested on: human prostate tumor xenografts (22Rv1 cells); assay: Tissue biodistribution and tumor-to-tissue fluorescence ratio of DUPA-NIR conjugates, IVIS imaging; type: in vivo, mice; conditions: 2 h after tail vein injection
Experimental: In vivo studies. More specifically, biodistribution of DUPA-NIR conjugates 1-9 was monitored using fluorescence imaging of mice bearing human prostate tumor xenografts (22Rv1 cells). Male nude mice with 22Rv1 tumor xenografts were injected with DUPA-NIR dye conjugates via tail vein. The mice were euthanized 2 h after administration of the DUPA-NIR dye conjugate, selected tissues were harvested, and tissues were imaged with IVIS imager (ex=745 nm, em=ICG, exposure time=1 s).
The conjugates were also tested to show the ratio of tumor-to-tissue fluorescence. […] After imaging, fluorescence within a Region of interest (ROI) was measured for each tissue using In Vivo imaging software and tumor-to-tissue fluorescence was then calculated
(§1) in vivo studies. […] Male nude mice with 22Rv1 tumor xenografts were injected with DUPA-NIR dye conjugates via tail vein. The mice were euthanized 2 h after administration of the DUPA-NIR dye conjugate, selected tissues were harvested, and tissues were imaged with IVIS imager (ex=745 nm, em=ICG, exposure time=1 s). After imaging, fluorescence within a Region of interest (ROI) was measured for each tissue using In Vivo imaging software and tumor-to-tissue fluorescence was then calculated.
Male nude mice with 22Rv1 tumor xenografts were injected with DUPA-NIR dye conjugates via tail vein. The mice were euthanized 2 h after administration of the DUPA-NIR dye conjugate, selected tissues were harvested, and tissues were imaged with IVIS imager (ex=745 nm, em=ICG, exposure time=1 s). After imaging, fluorescence within a Region of interest (ROI) was measured for each tissue using In Vivo imaging software and tumor-to-tissue fluorescence was then calculated.
as §1, with “In vivo” for “in vivo”

PSMA = molecular target: T1, PSMA (Homo sapiens, UniProt Q04609); assay: Relative binding affinity of DUPA-NIR conjugates with respect to DUPA-FITC on 22Rv1 cells, flow cytometry; conditions: for Kd: 1 h at 37° C., 100 nM DUPA-FITC; for affinity for PSMA (in words): in vitro binding affinity data
T1 construct: host or cells: 22Rv1 human prostate cancer cells
Experimental: (§2) FIG. 3—Relative binding affinities of DUPA-NIR conjugates 1-9 with respect to DUPA-FITC (14). PSMA-positive 22Rv1 human prostate cancer cells were incubated for 1 h at 37° C. in the presence of 100 nM DUPA-FITC with increasing concentrations of DUPA-NIR conjugates. […] Cell bound fluorescence was assayed as using flow cytometry.
as §2, with “6—Relative” for “3—Relative”, “with aromatic amino acids linkers” for “1-9”
as §2, with “3 Relative” for “3—Relative”
in vitro studies. […] PSMA-positive 22Rv1 human prostate cancer cells were incubated for 1 h at 37° C. in the presence of 100 nM DUPA-FITC with increasing concentrations of DUPA-NIR conjugates. […] Cell bound fluorescence was assayed as using flow cytometry.
PSMA-positive 22Rv1 human prostate cancer cells were incubated for 1 h at 37° C. in the presence of 100 nM DUPA-FITC with increasing concentrations of DUPA-NIR conjugates. […] Cell bound fluorescence was assayed as using flow cytometry.
as §2, with “24: Relative” for “3—Relative”, “conjugates” for “conjugates 1-9”
PSMA-positive 22Rv1 human prostate cancer cells were incubated for 1 h at 37° C. in the presence of 100 nM DUPA-FITC with increasing concentrations of DUPA-NIR conjugates. […] Cell bound fluorescence was assayed as using flow cytometry
Cancer cells were incubated for 1 h at 37° C. in the presence of 100 nM DUPA-FITC with increasing concentrations of compound 15. […] Cell bound fluorescence was assayed as using flow cytometry.

[2] = tested on: 22Rv1 human prostate tumor xenograft; assay: Time dependent whole-body fluorescence imaging of DUPA-NIR conjugates, IVIS imager; type: in vivo, mouse; conditions: 6 or 20 nmol, imaged at different time intervals
Experimental: 22Rv1 human prostate tumor xenograft bearing mouse was injected with 20 nmol of 15 and imaged with IVIS imager (ex=745 nm, em=ICG, exposure time=1 s) at different time intervals.
22Rv1 human prostate tumor xenograft bearing mouse was injected with 20 nmol of 23 and imaged with IVIS imager (ex=745 nm, em=ICG, exposure time=1 s) at different time intervals.
22Rv1 human prostate tumor xenograft bearing mouse was injected with 20 nmol of 25 and imaged with IVIS imager (ex=745 nm, em=ICG, exposure time=1 s) at different time intervals
22Rv1 human prostate tumor xenograft bearing mouse was injected with 6 nmol of 35 and imaged with IVIS imager (ex=745 nm, em=ICG, exposure time=1 s) at different time intervals.
22Rv1 human prostate tumor xenograft bearing mouse was injected with 6 nmol of 36 and imaged with IVIS imager (ex=745 nm, em=ICG, exposure time=1 s) at different time intervals.
22Rv1 human prostate tumor xenograft bearing mouse was injected with 20 nmol of 39 and imaged with IVIS imager (ex=745 nm, em=ICG, exposure time=1 s) at different time intervals.
22Rv1 human prostate tumor xenograft bearing mouse was injected with 20 nmol of 40 and imaged with IVIS imager (ex=745 nm, em=ICG, exposure time=1 s) at different time intervals.
22Rv1 human prostate tumor xenograft bearing mouse was injected with 20 nmol of 41 and imaged with IVIS imager (ex=745 nm, em=ICG, exposure time=1 s) at different time intervals.
FIG. 25: Overlay of whole body or half body fluorescence image over white light images after adjusting the threshold. 22Rv1 human prostate tumor xenograft bearing mouse was injected with 20 nmol of 54 and imaged with IVIS imager (ex=745 nm, em=ICG, exposure time=1 s) at different time intervals.
22Rv1 human prostate tumor xenograft bearing mouse was injected with 20 nmol of 55 and imaged with IVIS imager (ex=745 nm, em=ICG, exposure time=1 s) at different time intervals.
22Rv1 human prostate tumor xenograft bearing mouse was injected with 20 nmol of 56 and imaged with IVIS imager (ex=745 nm, em=ICG, exposure time=1 s) at different time intervals.
22Rv1 human prostate tumor xenograft bearing mouse was injected with 20 nmol of 57 and imaged with IVIS imager (ex=745 nm, em=ICG, exposure time=1 s) at different time intervals
22Rv1 human prostate tumor xenograft bearing mouse was injected with 20 nmol of 58 and imaged with IVIS imager (ex=745 nm, em=ICG, exposure time=1 s) at different time intervals
22Rv1 human prostate tumor xenograft bearing mouse was injected with 20 nmol of 60 and imaged with IVIS imager (ex=745 nm, em=ICG, exposure time=1 s) at different time intervals.
in vivo studies. […] 22Rv1 human prostate tumor xenograft bearing mouse was injected with 20 nmol of 63 and imaged with IVIS imager (ex=745 nm, em=ICG, exposure time=1 s) at different time intervals.
22Rv1 human prostate tumor xenograft bearing mouse was injected with 6 nmol of 63 and imaged with IVIS imager (ex=745 nm, em=ICG, exposure time=1 s) at different time intervals.
22Rv1 human prostate tumor xenograft bearing mouse was injected with 20 nmol of 64 and imaged with IVIS imager (ex=745 nm, em=ICG, exposure time=1 s) at different time intervals.
22Rv1 human prostate tumor xenograft bearing mouse was injected with 6 nmol of 15 and imaged with IVIS imager (ex=745 nm, em=ICG, exposure time=1 s) at different time intervals.

basophils = assay: Basophil activation test (Flow CAST) in human blood samples; type: cell-based
Experimental: Tolerability Studies: The blood samples were collected into hirudin tubes and used within an hour of collection. For each donor, 4 different tubes were prepared for allergen, positive controls, and negative control. Samples were analyzed using Flow CAST® high sensitivity Basophil Activation Test (BAT). Briefly, stimulation buffer (100 μL, background) or anti-FcεER antibody (100 μL) or fMLP (100 μL) or OTL78 (75 μM in 100 μL of saline) was added to tubes containing stimulation buffer (200 μL). 100 μL of blood was added to each tube and mixed gently. After adding staining reagent (40 μL) containing anti-CD63-CD203c-PE-DY647 and anti-CCR3-PE, each tube was mixed gently and incubated for 15 minutes at 37° C. Lysing reagent (2 mL) was added to each tube, mixed gently, incubated for 5-10 minutes at room temperature, and centrifuged for 5 minutes at 500×g. The supernatant was discarded and the cells were re-suspended in wash buffer (900 μL) and analyzed using flow cytometry. CD63-CD203c-PE-DY647+/CCR3-PE+ cell population considered as the activated basophils.

[3] = conjugates with variable length spacers

T1 sequence (Q04609 whole entry): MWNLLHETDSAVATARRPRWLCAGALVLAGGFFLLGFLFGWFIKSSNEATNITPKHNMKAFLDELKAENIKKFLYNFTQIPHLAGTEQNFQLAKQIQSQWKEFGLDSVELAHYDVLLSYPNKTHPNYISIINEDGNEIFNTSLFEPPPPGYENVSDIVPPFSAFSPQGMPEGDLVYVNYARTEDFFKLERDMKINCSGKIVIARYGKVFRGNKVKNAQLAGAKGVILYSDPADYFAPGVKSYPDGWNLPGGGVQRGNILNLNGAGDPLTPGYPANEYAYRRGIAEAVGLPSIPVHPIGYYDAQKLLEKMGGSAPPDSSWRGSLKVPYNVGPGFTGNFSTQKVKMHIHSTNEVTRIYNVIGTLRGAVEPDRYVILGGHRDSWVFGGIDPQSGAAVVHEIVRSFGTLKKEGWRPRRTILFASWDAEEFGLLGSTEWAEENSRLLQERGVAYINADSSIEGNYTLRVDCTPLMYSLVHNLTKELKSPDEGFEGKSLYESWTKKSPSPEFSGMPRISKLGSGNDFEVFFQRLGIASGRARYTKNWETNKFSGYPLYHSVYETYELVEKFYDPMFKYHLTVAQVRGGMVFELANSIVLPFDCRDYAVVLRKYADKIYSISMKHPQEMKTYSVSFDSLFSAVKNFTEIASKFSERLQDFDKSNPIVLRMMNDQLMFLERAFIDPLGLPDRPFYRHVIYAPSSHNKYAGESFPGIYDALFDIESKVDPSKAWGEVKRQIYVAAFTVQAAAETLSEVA

SMILES | Kd (PSMA; [3]) | affinity for PSMA (in words) (PSMA) | fluorescence intensity in the tumor / tumor accumulation [1] | tumor-to-background ratio (TBR), in words [1] | also measured
CC1(C)C(/C=C/C2=C(Oc3ccc(C[C@H](NC(=O)CCCCCCCNC(=O)[C@H](Cc4ccccc4)NC(=O)[C@H](Cc4ccccc4)NC(=O)C[C@H](NC(=O)CC[C@H](NC(=O)N[C@@H](CCC(=O)O)C(=O)O)C(=O)O)C(=O)O)C(=O)O)cc3)C(=C/C=C3/N(CCCCS(=O)(=O)O)c4ccc(S(=O)(=O)O)cc4C3(C)C)/CCC2)=[N+](CCCCS(=O)(=O)[O-])c2ccc(S(=O)(=O)O)cc21 [Compound 7] | 26.8 nM |  | lower | third best | 
CC1(C)C(/C=C/C2=C(Oc3ccc(C[C@H](NC(=O)[C@H](CCCNC(=N)N)NC(=O)[C@H](CCCNC(=N)N)NC(=O)CCCCCCCNC(=O)CC[C@H](NC(=O)N[C@@H](CCC(=O)O)C(=O)O)C(=O)O)C(=O)O)cc3)C(=C/C=C3/N(CCCCS(=O)(=O)O)c4ccc(S(=O)(=O)O)cc4C3(C)C)/CCC2)=[N+](CCCCS(=O)(=O)[O-])c2ccc(S(=O)(=O)O)cc21 [Compound 39] |  |  |  |  | whole-body imaging [2]: very good whole-body imaging
CC1(C)C(=CC=C2CCCC(C=CC3=[N+](CCCCS(=O)(=O)[O-])c4ccc(S(=O)(=O)O)cc4C3(C)C)=C2Oc2ccc(CC(NC(=O)CC(NC(=O)C(Cc3ccccc3)NC(=O)C(Cc3ccccc3)NC(=O)CCCCCCCNC(=O)CCC(NC(=O)NC(CCC(=O)O)C(=O)O)C(=O)O)C(=O)O)C(=O)O)cc2)N(CCCCS(=O)(=O)O)c2ccc(S(=O)(=O)O)cc21 (stereo not drawn) [Compound 49] |  | low binding affinity | very high tumor accumulation (high fluorescence intensity) | good | 
CSCC[C@H](NC=O)C(=O)N[C@@H](CC(C)C)C(=O)N[C@@H](Cc1ccccc1)C(=O)O [fMLP, N-formylmethionyl-leucyl-phenylalanine] |  |  |  |  | positive response (% activated basophils) (basophils; FIG. 47E): 73.5%; stimulated index (basophils; FIG. 47E, ≥2 considered positive response): 29.5; Percent of basophile activation, Avg (basophils; average of 3 healthy subjects): 60%; Percent of basophile activation, Subject 1 (basophils; healthy subjects, OTL78 75 μM): 73.5%; Percent of basophile activation, Subject 2 (basophils; healthy subjects, OTL78 75 μM): 55.9%; Percent of basophile activation, Subject 3 (basophils; healthy subjects, OTL78 75 μM): 50.6%; SI = Avg/background (basophils; stimulation index, ≥2 considered positive response): 23.1

More lines, main results first:

Kd (PSMA; [3]) | affinity for PSMA (in words) (PSMA) | SMILES | fluorescence intensity in the tumor / tumor accumulation [1] | tumor-to-background ratio (TBR), in words [1] | also measured
15.2 nM | very high affinity | CC1(C)C(/C=C/C2=C(Oc3ccc(C[C@H](NC(=O)CCCCCCCNC(=O)CC[C@H](NC(=O)N[C@@H](CCC(=O)O)C(=O)O)C(=O)O)C(=O)O)cc3)C(=C/C=C3/N(CCCCS(=O)(=O)O)c4ccc(S(=O)(=O)O)cc4C3(C)C)/CCC2)=[N+](CCCCS(=O)(=O)[O-])c2ccc(S(=O)(=O)O)cc21 [Compound 4, DUPA-EAOA-Tyr-S0456] | higher fluorescence intensity | best | 
35.7 nM |  | CC1(C)C(/C=C/C2=C(Oc3ccc(C[C@H](NC(=O)CCCCCCCNC(=O)[C@H](Cc4ccccc4)NC(=O)[C@H](Cc4ccccc4)NC(=O)CC[C@H](NC(=O)N[C@@H](CCC(=O)O)C(=O)O)C(=O)O)C(=O)O)cc3)C(=C/C=C3/N(CCCCS(=O)(=O)O)c4ccc(S(=O)(=O)O)cc4C3(C)C)/CCC2)=[N+](CCCCS(=O)(=O)[O-])c2ccc(S(=O)(=O)O)cc21 [Compound 6] | lower | second | 
 | very high affinity | CC1(C)C(/C=C/C2=C(Oc3ccc(C[C@H](NC(=O)[C@H](Cc4ccccc4)NC(=O)[C@H](Cc4ccccc4)NC(=O)CCCCCCCNC(=O)CC[C@H](NC(=O)N[C@@H](CCC(=O)O)C(=O)O)C(=O)O)C(=O)O)cc3)C(=C/C=C3/N(CCCCS(=O)(=O)O)c4ccc(S(=O)(=O)O)cc4C3(C)C)/CCC2)=[N+](CCCCS(=O)(=O)[O-])c2ccc(S(=O)(=O)O)cc21 [Compound 23] |  |  | Kd (PSMA; conjugates with aromatic linkers): 7.5 nM; whole-body imaging [2]: very good whole-body imaging data within 2-4 hours
